Active and inactive are the calls of the source.

A short description of experiment [1]: activation of miR-122 Renilla sensor silencing – cell-based, Huh7 psiCHECK-miR122, Renilla luciferase, cherry-picked, dose response (AID 651956).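 Further: huh7 hepatoma cells stably carrying a psiCHECK-2 miR-122 sensor plasmid; renilla luciferase signal reporting endogenous miR-122 activity after 48 h compound exposure.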 The class given is functional.
In experiment [2] the target is T1, Sentrin-specific protease 1 (Homo sapiens, UniProt Q9P0U3).
T1 sequence (Q9P0U3 whole entry): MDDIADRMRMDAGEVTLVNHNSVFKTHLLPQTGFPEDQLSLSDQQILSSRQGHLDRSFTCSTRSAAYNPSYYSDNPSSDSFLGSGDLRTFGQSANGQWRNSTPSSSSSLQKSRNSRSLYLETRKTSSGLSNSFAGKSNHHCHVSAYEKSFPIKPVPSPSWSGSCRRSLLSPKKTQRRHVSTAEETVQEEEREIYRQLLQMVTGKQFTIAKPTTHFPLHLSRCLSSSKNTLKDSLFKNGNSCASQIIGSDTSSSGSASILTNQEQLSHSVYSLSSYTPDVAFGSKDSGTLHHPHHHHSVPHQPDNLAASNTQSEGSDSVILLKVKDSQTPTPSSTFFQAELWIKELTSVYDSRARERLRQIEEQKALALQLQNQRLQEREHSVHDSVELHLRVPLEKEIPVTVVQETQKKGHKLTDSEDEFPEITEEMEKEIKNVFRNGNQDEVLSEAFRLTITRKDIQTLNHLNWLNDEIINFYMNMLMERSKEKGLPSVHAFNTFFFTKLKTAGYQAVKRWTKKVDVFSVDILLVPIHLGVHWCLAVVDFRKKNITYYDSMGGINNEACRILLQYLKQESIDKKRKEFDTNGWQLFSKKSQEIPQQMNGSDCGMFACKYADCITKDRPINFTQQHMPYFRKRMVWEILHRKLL
Nature of the experiment: SENP1 catalytic domain blockers, concentration series – biochemical, kinetic FRET, dose response (AID 651697). The format is functional. Particulars: read-out: IC50_Mean.

The target in experiment [3] is T1, Sentrin-specific protease 1. Kind of experiment: Dose response confirmation of small molecule inhibitors of the catalytic domain of the SUMO protease, SENP1 in a FRET assay. The note with it: read-out: IC50_Mean. The format is functional.
The subject of experiment [4] is HEK293. Kind of experiment: inhibition of NOD1-driven NF-kB reporter – cell-based, luminescence, uHTS, primary screen (AID 1578). The class given is functional. Particulars: Homo sapiens.
The subject of experiment [5] is HEK293. Nature of the experiment: cells. The format is functional, cell-based. Particulars: Homo sapiens.
Experiment [6] deals with HEK293. Nature of the experiment: cells. The note with it: Homo sapiens. The class given is functional, cell-based. The source holds these as a separate data set.
Experiment [7] addresses Nucleotide-binding oligomerization domain-containing protein 2 (Homo sapiens, UniProt Q9HC29). Kind of experiment: inhibition of NOD2-driven NF-kB reporter – cell-based, luminescence, uHTS, HEK293 (AID 1566). The class given is functional.
Experiment [8] concerns HEK293. Kind of experiment: NOD2 signaling inhibitors in MDP-stimulated cells, cell-based, uHTS, luminescence (AID 2001). The format is functional. Particulars: Homo sapiens.
For experiment [9], the system named is HEK293. Kind of experiment: cells. The class given is functional, cell-based. The note with it: Homo sapiens. This is another data set of the same source.
The target in experiment [10] is Photoreceptor-specific nuclear receptor (Homo sapiens, UniProt Q9Y5X4). The class given is functional, cell-based.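 Further: CHO-S cells with Gal4-NCOR and VP16-NR2E3 two-hybrid luciferase reporter.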
A further experiment has as its target Large T antigen (Simian virus 40, UniProt P03070). The class given is functional, Betapolyomavirus macacae.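 Further: Confirmatory-stage PubChem screen for compounds that inhibit SV40 T antigen.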
Experiment [11] has as its target T2, Heat shock factor protein 1 (Mus musculus, UniProt P38532).
T2 sequence (P38532 whole entry): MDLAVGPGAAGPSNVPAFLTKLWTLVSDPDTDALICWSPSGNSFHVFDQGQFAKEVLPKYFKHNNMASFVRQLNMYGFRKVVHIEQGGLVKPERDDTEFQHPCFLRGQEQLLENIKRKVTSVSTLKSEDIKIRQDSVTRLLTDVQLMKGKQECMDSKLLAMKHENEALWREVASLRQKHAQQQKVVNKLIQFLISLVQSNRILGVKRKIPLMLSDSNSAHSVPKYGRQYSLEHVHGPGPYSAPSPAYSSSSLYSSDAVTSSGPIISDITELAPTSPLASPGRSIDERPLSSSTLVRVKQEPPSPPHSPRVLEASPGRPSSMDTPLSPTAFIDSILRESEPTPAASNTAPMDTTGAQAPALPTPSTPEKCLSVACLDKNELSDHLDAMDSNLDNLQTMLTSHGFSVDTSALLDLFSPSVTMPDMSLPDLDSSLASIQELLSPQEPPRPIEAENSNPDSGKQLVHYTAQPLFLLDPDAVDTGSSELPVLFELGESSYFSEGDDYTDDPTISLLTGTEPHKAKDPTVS
Nature of the experiment: enhancement of HSF1-driven luciferase signal – cell-based, NIH3T3, luminescence, dose retest, confirmation (AID 435004).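 Further: stress induced by proteasome inhibitor MG132 added 30 min after compound; luciferase reporter driven by HSF1 response element in NIH3T3 cells; actives raise luminescence as potentiators of the MG132 stress response.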 The format is functional.

Another experiment concerns the target Protein Wnt-3a (Mus musculus, UniProt P27467). Nature of the experiment: antagonism of Wnt3a pathway luciferase reporter – Wnt-LIGHT cells, luminescence, selectivity assay for Gli-SUFU antagonist project, dose response (AID 651570).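 Further: Wnt-LIGHT reporter cells stimulated with conditioned medium from Wnt3a-producing cells.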 The class given is functional. Particulars: read-out: IC50_Mean. On the technique in general: A reporter such as luciferase makes a cellular process visible.

For experiment [12], the target named is T3, Rac GTPase-activating protein 1 (Homo sapiens, UniProt Q9H0H5).
T3 sequence (Q9H0H5 whole entry): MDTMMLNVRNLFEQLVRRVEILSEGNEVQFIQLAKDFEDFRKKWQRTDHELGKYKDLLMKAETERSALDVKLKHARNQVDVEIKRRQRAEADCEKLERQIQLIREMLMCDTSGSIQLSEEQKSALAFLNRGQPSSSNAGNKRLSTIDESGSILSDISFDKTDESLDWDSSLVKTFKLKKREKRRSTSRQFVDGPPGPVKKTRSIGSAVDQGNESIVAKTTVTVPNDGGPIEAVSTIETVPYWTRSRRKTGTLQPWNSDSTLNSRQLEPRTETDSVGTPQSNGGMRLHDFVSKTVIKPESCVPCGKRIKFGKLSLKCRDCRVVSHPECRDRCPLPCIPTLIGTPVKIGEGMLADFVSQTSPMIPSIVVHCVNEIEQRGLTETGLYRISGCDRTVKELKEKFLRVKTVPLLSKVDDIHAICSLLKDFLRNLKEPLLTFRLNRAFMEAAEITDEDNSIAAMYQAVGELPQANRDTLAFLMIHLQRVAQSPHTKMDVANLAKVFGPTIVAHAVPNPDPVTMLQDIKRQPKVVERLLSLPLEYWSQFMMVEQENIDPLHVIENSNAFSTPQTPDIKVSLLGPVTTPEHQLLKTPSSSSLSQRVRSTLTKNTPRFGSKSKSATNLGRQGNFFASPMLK
Nature of the experiment: blockers of MgcRacGAP-driven Rac1 GTP hydrolysis – biochemical, ADP Hunter fluorescence, primary and confirmatory, confirmation (AID 624330). The class given is functional.

Experiment [13] can be described thus: NIH-3T3 fibroblast cytotoxicity, dose response, cytotoxicity control, cell-based, fluorescence, Alamar Blue, secondary assay (AID 2327).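 Further: NIH-3T3 mouse fibroblasts cultured with fluconazole at 8 µg/mL.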 The class given is functional. (Alamar Blue is a resazurin reagent that responds to reducing activity.)
Experiment [14] can be described thus: fluconazole-exposed Candida albicans growth modulators – fluorescence, retest, confirmation (AID 2467). The format is functional, cell-based.
In a further experiment the target is T4, Estrogen receptor (Homo sapiens, UniProt P03372).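 Further: potency for inhibiting coactivator peptide recruitment to the receptor.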
T4 sequence (P03372 whole entry): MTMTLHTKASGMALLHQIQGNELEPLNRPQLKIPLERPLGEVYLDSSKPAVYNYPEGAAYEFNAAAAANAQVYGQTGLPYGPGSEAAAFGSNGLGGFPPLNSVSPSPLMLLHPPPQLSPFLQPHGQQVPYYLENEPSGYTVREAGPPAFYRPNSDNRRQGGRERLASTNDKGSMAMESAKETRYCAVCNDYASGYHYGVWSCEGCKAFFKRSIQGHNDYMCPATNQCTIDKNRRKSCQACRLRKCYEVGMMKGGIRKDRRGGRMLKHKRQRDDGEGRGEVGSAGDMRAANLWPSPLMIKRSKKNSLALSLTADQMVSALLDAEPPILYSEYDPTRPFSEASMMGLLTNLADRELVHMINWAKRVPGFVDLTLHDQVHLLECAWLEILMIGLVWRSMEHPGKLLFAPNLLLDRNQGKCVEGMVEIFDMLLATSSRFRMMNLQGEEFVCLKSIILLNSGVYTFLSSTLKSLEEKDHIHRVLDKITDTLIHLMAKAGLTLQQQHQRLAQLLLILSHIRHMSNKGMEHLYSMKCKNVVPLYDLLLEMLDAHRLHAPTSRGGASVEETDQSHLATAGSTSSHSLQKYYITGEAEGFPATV

Experiment [15] is described as follows: Trypanosoma cruzi growth suppression in host cells – NIH3T3 host cells, beta-gal luminescence, confirmation (AID 2044).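 Further: intracellular parasites grown in NIH/3T3 mouse fibroblasts as host cells; luminescent beta-galactosidase reporter signal from transgenic T. cruzi replicating inside host cells; inhibitors lower the luminescence signal.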 The format is functional, cell-based.
Experiment [16] can be described thus: NIH3T3 cell viability loss – ATP luminescence, mouse fibroblasts, counter-screen, dose response (AID 2010).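 Further: cells exposed to compound for about 90 hours before reading.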 The class given is functional, cell-based. A general note: A counterscreen serves to expose hits that act by an unwanted route or on another target.

Photoreceptor-specific nuclear receptor, sequence (Q9Y5X4 whole entry, the tested form may be a part): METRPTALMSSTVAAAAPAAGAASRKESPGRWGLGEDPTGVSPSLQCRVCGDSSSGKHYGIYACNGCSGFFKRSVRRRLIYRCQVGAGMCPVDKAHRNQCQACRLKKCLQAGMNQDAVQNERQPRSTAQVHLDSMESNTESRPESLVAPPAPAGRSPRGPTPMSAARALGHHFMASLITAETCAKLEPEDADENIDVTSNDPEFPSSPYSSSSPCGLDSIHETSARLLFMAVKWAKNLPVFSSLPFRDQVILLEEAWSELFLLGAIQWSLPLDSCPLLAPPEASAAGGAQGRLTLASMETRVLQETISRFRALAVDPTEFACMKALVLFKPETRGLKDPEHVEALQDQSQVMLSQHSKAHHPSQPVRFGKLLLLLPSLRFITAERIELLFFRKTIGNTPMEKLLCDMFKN
Nucleotide-binding oligomerization domain-containing protein 2, sequence (Q9HC29 whole entry, the tested form may be a part): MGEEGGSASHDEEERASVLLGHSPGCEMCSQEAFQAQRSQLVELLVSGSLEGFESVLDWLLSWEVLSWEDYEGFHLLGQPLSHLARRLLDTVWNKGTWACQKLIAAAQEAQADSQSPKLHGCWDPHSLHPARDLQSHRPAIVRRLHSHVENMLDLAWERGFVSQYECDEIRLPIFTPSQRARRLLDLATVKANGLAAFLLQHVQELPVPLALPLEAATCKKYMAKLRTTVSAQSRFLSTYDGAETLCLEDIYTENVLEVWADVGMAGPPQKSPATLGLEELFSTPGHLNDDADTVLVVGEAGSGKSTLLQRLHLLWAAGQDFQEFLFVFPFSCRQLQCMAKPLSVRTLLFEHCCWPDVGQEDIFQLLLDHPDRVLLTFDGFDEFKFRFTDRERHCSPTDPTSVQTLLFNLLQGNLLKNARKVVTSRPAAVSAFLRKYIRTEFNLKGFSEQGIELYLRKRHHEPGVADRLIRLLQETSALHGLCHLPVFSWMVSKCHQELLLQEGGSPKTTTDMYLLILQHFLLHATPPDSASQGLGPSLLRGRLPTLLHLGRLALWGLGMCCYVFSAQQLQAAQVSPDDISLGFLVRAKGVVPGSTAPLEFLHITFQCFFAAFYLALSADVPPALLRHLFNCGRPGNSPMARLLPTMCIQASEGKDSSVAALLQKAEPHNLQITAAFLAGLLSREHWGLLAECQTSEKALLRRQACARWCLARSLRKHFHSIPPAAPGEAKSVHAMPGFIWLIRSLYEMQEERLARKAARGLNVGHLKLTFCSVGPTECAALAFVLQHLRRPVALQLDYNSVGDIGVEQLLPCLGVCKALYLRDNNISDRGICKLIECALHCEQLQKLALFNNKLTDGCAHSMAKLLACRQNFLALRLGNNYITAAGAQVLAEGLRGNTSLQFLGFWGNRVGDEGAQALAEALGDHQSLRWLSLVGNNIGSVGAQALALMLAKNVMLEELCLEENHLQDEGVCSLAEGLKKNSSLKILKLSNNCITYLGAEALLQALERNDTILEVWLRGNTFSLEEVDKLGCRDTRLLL
Protein Wnt-3a, sequence (P27467 whole entry): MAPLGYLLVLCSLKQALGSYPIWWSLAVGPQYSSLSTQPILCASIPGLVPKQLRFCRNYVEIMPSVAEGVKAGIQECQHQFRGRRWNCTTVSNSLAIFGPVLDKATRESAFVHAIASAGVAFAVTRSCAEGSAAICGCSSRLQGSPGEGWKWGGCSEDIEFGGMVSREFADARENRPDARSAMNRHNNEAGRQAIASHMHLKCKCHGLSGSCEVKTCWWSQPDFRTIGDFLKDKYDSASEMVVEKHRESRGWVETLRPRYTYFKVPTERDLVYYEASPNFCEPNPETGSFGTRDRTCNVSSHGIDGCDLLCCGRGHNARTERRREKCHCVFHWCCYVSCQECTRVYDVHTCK
Large T antigen, sequence (P03070 whole entry): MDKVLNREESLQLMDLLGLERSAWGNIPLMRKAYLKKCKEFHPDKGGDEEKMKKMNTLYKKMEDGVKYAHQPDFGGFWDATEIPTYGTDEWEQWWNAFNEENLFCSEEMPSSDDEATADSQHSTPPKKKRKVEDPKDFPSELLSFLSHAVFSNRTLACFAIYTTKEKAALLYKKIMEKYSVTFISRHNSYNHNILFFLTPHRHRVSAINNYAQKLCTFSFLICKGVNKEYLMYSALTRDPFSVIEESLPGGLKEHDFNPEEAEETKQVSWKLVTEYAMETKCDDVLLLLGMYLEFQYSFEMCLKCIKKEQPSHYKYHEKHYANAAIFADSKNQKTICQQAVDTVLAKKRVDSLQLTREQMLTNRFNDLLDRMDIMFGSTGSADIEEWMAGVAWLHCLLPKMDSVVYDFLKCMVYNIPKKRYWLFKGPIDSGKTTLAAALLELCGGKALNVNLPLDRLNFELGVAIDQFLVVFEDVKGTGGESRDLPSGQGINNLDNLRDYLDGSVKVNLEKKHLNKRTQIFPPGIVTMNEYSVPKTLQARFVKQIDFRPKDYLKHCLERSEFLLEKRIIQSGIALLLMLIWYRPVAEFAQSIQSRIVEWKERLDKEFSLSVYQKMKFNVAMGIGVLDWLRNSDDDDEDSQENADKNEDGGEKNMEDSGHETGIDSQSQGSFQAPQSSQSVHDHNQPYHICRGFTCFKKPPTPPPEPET

As usually defined, the AC50 is the midpoint of the concentration-response curve, whichever way the signal moves. Take `Cc1ccccc1-c1ccc2c(c1)O[C@@H](CN(C)C(=O)Nc1ccc(F)cc1)[C@@H](C)CN([C@@H](C)CO)S2(=O)=O`: the concentration at half-maximal activity (AC50) in [1] was 18.5 µM (active).

Regarding `c1ccc(CN2CCN(C3=Nc4cccc5cccc3c45)CC2)cc1`, the IC50 in [2] was 7.01 µM (active); in experiment [3], 7.24 µM (active).

By EC50 is commonly meant the concentration at which the effect is half-maximal. For `C=CCn1c(C)cc(C(=O)COc2ccc(C)nc2[N+](=O)[O-])c1C`, the values for the EC50 (in the experiment on HEK293 [4]; in [7]) were > 20 µM (inactive) and 6.96 µM (active), respectively. Besides, the IC50 is 5.78 µM (active) with HEK293 [5]; > 20 µM (inactive) in the experiment with HEK293 [6]; > 20 µM (inactive) in the experiment with HEK293 [8]; > 20 µM (inactive) in the experiment on HEK293 [9]; 4.69 µM (active) in experiment [10].

`COc1ccc(NC2=Nc3cccc4cccc2c34)cc1`: the IC50 in experiment [2] is 45.8 µM (inactive); in [3] it was 10 µM (active).

`c1ccc(NC2=Nc3cccc4cccc2c34)cc1`: the IC50 is 53.8 µM (inactive) in experiment [2] and 17.2 µM (active) in [3].

Consider `COc1cc(S(=O)(=O)Nc2ccc3c(c2)C(=O)N(C)C3=O)ccc1NC(C)=O`, for which the IC50 is 9.06 µM (active) in experiment [2] and 9.39 µM (active) in experiment [3].

`O=C1N/C(=C\c2ccc(O)cc2)C(O)=C1/C=N/Cc1ccccc1`: the IC50 on Large T antigen was 12.1 µM (active); in experiment [10], 3.35 µM (active); at Protein Wnt-3a, 7.28 µM (active); in experiment [12], 13 µM (active). Besides, in [11], the EC50 was 5.35 µM (active).

With `CCCC#Cc1ccc2c(c1)O[C@H](CN(C)C(=O)c1ccncc1)[C@H](C)CN([C@@H](C)CO)S2(=O)=O`, the concentration at half-maximal activity (AC50) in experiment [1] is 1.06 µM (active).

For the molecule `Cc1cccc(-n2c(SCc3cc(=O)n4ccsc4n3)nc3ccccc32)c1`, the EC50 is 19.9 µM (active) in [13]; 2.05 µM (active) in [14]; < 0.1 µM (active) in experiment [15]; > 60 µM (not active) in [16]; 0.209 µM (active) in “cells”. For the same molecule, the IC50 against Estrogen receptor was > 50 µM (not active); in [2], 22.3 µM (inactive); in experiment [3], 9.71 µM (active).

On to `CCC(=O)N1C[C@H]2[C@@H](c3ccccc31)[C@H](CO)N2C(=O)Nc1ccccc1F`, for which, in experiment [1], the concentration at half-maximal activity (AC50) was 4.38 µM (active).

The record behind these values is ChEMBL document CHEMBL1201862, “PubChem BioAssay data set” (2004).
